Data from BindingDB's records for doi:10.1021/acs.jmedchem.0c01160 (University of Groningen, 2020).

Target: T1, Macrophage migration inhibitory factor (Homo sapiens, UniProt P14174)
T1 sequence (P14174 whole entry): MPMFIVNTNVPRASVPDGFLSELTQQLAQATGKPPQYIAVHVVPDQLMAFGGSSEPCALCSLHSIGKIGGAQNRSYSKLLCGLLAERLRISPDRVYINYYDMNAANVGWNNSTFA
Assay: Inhibition of C-terminal His-tagged recombinant human MIF expressed in Escherichia coli BL21 (DE3) using 4-HPP as substrate preincubated for 10 mins followed by substrate addition by UV absorption spectrum analysis

Which IC50 does the source give for `O=C(O)c1ccc(-c2ccc(-c3cc4ccc(O)cc4oc3=O)cc2)cc1` here?
The IC50 was 71 nM.
